Drawing on ChEMBL document CHEMBL3351796, “Discovery of potent and selective sirtuin 2 (SIRT2) inhibitors using a fragment-based approach” (J Med Chem, 2014), this text covers inhibition and IC50 for 42 compounds.

Assay [1] has as its target T1, NAD-dependent protein deacetylase sirtuin-1 (Homo sapiens) (UniProt Q96EB6).
T1 sequence (whole entry): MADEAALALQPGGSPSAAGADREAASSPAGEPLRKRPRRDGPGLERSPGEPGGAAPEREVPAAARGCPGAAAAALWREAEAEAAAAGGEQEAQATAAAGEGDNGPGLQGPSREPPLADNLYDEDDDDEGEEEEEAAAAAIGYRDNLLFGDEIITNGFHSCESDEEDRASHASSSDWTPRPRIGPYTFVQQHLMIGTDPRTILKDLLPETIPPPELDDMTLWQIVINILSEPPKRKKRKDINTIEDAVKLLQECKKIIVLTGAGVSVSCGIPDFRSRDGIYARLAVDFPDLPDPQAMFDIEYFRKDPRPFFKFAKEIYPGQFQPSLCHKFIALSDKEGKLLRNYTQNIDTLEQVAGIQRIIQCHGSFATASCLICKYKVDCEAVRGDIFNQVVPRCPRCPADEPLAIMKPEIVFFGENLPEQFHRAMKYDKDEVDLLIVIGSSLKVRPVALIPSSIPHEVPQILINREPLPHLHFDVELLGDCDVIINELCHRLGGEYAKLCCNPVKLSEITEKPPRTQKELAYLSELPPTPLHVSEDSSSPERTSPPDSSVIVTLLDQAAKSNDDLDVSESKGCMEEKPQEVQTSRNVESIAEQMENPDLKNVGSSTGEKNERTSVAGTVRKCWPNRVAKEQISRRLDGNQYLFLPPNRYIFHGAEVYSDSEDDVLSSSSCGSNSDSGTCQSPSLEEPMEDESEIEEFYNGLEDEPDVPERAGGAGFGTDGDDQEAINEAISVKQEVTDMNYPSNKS
In words: Inhibition of full length human SIRT1 expressed in Escherichia coli BL21 (DE3) cells at 100 uM using fluorogenic 7-amino-4-methylcoumarin (AMC)-labeled peptide by fluorescence assay.

The target in assay [2] is T2, NAD-dependent protein deacetylase sirtuin-2 (Homo sapiens) (UniProt Q8IXJ6).
T2 sequence (whole entry): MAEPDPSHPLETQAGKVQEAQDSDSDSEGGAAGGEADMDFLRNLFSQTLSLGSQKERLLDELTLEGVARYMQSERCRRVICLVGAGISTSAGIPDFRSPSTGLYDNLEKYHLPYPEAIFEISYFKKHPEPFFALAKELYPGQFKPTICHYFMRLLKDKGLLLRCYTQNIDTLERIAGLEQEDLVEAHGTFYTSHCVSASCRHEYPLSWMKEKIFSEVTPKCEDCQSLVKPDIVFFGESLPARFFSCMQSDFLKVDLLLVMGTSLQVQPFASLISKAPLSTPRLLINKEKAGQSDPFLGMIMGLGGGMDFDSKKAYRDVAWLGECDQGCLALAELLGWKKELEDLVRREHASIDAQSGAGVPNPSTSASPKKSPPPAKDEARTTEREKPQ
In words: Inhibition of full length human SIRT2 expressed in Escherichia coli BL21 (DE3) cells at 100 uM using fluorogenic 7-amino-4-methylcoumarin (AMC)-labeled peptide by fluorescence assay.

The target in assay [3] is T3, NAD-dependent protein deacetylase sirtuin-3, mitochondrial (Homo sapiens) (UniProt Q9NTG7).
T3 sequence (whole entry): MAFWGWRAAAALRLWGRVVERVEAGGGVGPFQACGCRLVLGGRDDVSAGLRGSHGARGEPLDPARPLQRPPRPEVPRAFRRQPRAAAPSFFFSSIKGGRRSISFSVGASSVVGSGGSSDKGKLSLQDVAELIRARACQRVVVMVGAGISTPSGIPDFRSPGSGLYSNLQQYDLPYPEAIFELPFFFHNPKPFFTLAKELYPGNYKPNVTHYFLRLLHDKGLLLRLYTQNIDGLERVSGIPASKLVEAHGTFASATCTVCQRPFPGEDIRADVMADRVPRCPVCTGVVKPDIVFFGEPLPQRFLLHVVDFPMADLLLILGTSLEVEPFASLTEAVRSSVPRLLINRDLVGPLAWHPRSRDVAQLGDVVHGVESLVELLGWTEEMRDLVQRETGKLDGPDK
The note with it: BL21-DE3, 100 uM.

The target in assay [4] is T4, NAD-dependent protein deacetylase sirtuin-1 (Homo sapiens, UniProt Q96EB6).
T4 sequence (Q96EB6 whole entry): T1 sequence (whole entry)
Briefly: biochemical. Type of assay: cell-based, BL21-DE3.
Description: Inhibition of full length human SIRT1 expressed in Escherichia coli BL21 (DE3) cells using fluorogenic 7-amino-4-methylcoumarin (AMC)-labeled peptide by fluorescence assay

Assay [5] concerns the target T5, NAD-dependent protein deacetylase sirtuin-2 (Homo sapiens, UniProt Q8IXJ6).
T5 sequence (Q8IXJ6 whole entry): T2 sequence (whole entry)
Briefly: Inhibition of full length human SIRT2 expressed in Escherichia coli BL21 (DE3) cells using fluorogenic 7-amino-4-methylcoumarin (AMC)-labeled peptide by fluorescence assay.

One may read the inhibition as the percentage by which the read-out fell short of the control. On to `O=C(Nc1ccc(S(=O)(=O)O)c2ccccc12)c1ccccc1`, for which the inhibition in assay [1] was below 10%; in assay [2] it was 10%; in assay [3], 25%.
The IC50 is the concentration that gives 50% inhibition. Lower therefore signals inhibition by little substance. As for `Cc1ccc(C(=O)Nc2cccc3c(Oc4cncc(C(N)=O)c4)cccc23)cc1[N+](=O)[O-]`, the IC50 in assay [4] stood at 100 µM; in assay [5], 0.978 µM.
Regarding `Cc1ccc(C(=O)Nc2cccc3cc(Oc4cncc(C(N)=O)c4)ccc23)cc1`, the results for the IC50 in assay [4] and in assay [5] were 3.82 µM and 0.489 µM, respectively.
Turning to `NC(=O)c1ccc(Oc2ccc3ccccc3c2)cc1`, the inhibition was below 10% in assay [1], 16% in assay [2] and below 10% in assay [3].
Consider `Cc1ccc(C(=O)Nc2cccc3cc(S(=O)(=O)O)ccc23)cc1[N+](=O)[O-]`, for which the inhibition was 19% in assay [1], 38% in assay [2] and below 10% in assay [3].
On to `O=C(Nc1cccc2cc(S(=O)(=O)O)ccc12)c1cccc([N+](=O)[O-])c1`, for which the inhibition is 13% in assay [1], 22% in assay [2] and below 10% in assay [3].
On the same counts, the results for `NC(=O)c1ccc(Sc2cccc3ccccc23)nc1` are 40%, 47% and 42%.
In the case of `NC(=O)c1cncc(Sc2cccc3ccccc23)c1`, the results for the IC50 in assay [4] and in assay [5] were 30.3 µM and 9.8 µM, respectively.
For the compound `Cc1ccc(C(=O)Nc2cccc3c(Oc4cncc(C(N)=O)c4)cccc23)cc1`, the half-maximal inhibitory concentration (IC50) in assay [4] is 18.7 µM; in assay [5], 0.0774 µM.
With `NC(=O)c1ccc(Nc2cccc3ccccc23)nc1`, the values for the inhibition in assay [1], in assay [2] and in assay [3] were 19%, 41% and 38%, respectively.
On the same counts, the results for `NC(=O)c1ccc(Sc2ccc3ccccc3c2)cc1` are 20%, 41% and below 10%.
Turning to `NC(=O)c1cncc(Oc2cccc3c(NC(=O)c4ccncc4)cccc23)c1`, the IC50 in assay [4] is 15.4 µM; in assay [5], 0.955 µM.
In the same order, the values of `NC(=O)c1cncc(Oc2cccc3ccccc23)c1` are 4.89 µM and 7.57 µM.
In the case of `Nc1cccc(C(=O)Nc2ccc(S(=O)(=O)O)c3ccccc23)c1`, the inhibition in assay [1], in assay [2] and in assay [3] was below 10% each time.
As to `O=C(Nc1ccc(S(=O)(=O)O)c2ccccc12)c1cccc([N+](=O)[O-])c1`, the inhibition is below 10% in assay [1], 29% in assay [2] and 23% in assay [3].
For the compound `Cc1ccc(C(=O)Nc2cccc3cccc(S(=O)(=O)O)c23)cc1`, the inhibition in assay [1] is below 10%; in assay [2], below 10%; in assay [3] it was 10%.
For `NC(=O)c1cccc(Nc2cccc3ccccc23)c1`, the inhibition in assay [1] is below 10%; in assay [2], 46%; in assay [3], below 10%.
With `Cc1ccc(C(=O)Nc2cccc3cccc(S(=O)(=O)O)c23)cc1N`, the values for the inhibition in assay [1], in assay [2] and in assay [3] were 12%, below 10% and 16%, respectively.
Consider `NC(=O)c1ccc(Sc2ccc3ccccc3c2)nc1`, for which the inhibition in assay [1] worked out at 31%; in assay [2], 73%; in assay [3], 42%.
As to `NC(=O)c1cncc(Oc2ccc3c(NC(=O)c4ccccc4)cccc3c2)c1`, the IC50 in assay [4] was 22.4 µM; in assay [5], 0.436 µM.
Take `Cc1ccc(C(=O)Nc2ccc(S(=O)(=O)O)c3ccccc23)cc1`: the inhibition was 22% in assay [1], 17% in assay [2] and 25% in assay [3].
On the same counts, the results for `NC(=O)c1ccc(Nc2ccc3ccccc3c2)nc1` are below 10%, 20% and below 10%.
For `NC(=O)c1cccc(Oc2ccc3ccccc3c2)c1`, the inhibition in assay [1] was 47%; in assay [2], 84%; in assay [3] it was 49%.
Take `NC(=O)c1cccc(Oc2cccc3ccccc23)c1`: the values for the inhibition in assay [1], in assay [2] and in assay [3] were 35%, 66% and 35%, respectively.
For `Cc1ccc(C(=O)Nc2cccc3cccc(S(=O)(=O)O)c23)cc1[N+](=O)[O-]`, the inhibition in assay [1] is 26%; in assay [2], below 10%; in assay [3] it was below 10%.
With `Nc1cccc(C(=O)Nc2cccc3cc(S(=O)(=O)O)ccc23)c1`, the inhibition in assay [1], in assay [2] and in assay [3] was below 10% in each case.
For `Cc1ccc(C(=O)Nc2ccc(S(=O)(=O)O)c3ccccc23)cc1N`, the inhibition in assay [1] is 11%; in assay [2], 13%; in assay [3], below 10%.
In the same order, the values of `NC(=O)c1ccc(Nc2ccc3ccccc3c2)cc1` are below 10%, 15% and 47%.
In the case of `O=C(Nc1cccc2cccc(S(=O)(=O)O)c12)c1ccccc1`, the results for the inhibition in assay [1], in assay [2] and in assay [3] were 17%, below 10% and 15%, respectively.
As to `NC(=O)c1ccc(Sc2cccc3ccccc23)cc1`, the inhibition is below 10% in assay [1], 24% in assay [2] and below 10% in assay [3].
The compound `N#C/C(=C\c1ccc(-c2cc(Cl)ccc2Cl)o1)C(=O)Nc1cccc2ncccc12` gave an IC50 in assay [4] of 135 µM.
As for `NC(=O)c1ccc(Oc2cccc3ccccc23)nc1`, the inhibition in assay [1] was below 10%; in assay [2] it was 33%; in assay [3], 39%.
Consider `NC(=O)c1cccc(Nc2ccc3ccccc3c2)c1`, for which the inhibition in assay [1] was below 10%; in assay [2], 65%; in assay [3], below 10%.
Take `NC(=O)c1ccc(Nc2cccc3ccccc23)cc1`: the inhibition was below 10% in assay [1], below 10% in assay [2] and 22% in assay [3].
Regarding `Cc1ccc(C(=O)Nc2ccc(S(=O)(=O)O)c3ccccc23)cc1[N+](=O)[O-]`, the inhibition in assay [1] was determined as 23%; in assay [2], 25%; in assay [3] it was 22%.
In the same order, the values of `Cc1ccc(C(=O)Nc2cccc3cc(S(=O)(=O)O)ccc23)cc1` are 19%, 24% and 22%.
On the same counts, the results for `NC(=O)c1ccc(Oc2ccc3ccccc3c2)nc1` are 31%, 61% and 44%.
For the compound `Nc1cccc(C(=O)Nc2cccc3cccc(S(=O)(=O)O)c23)c1`, the inhibition in assay [1] is 12%; in assay [2], below 10%; in assay [3] it was below 10%.
Take `Cc1ccc(C(=O)Nc2cccc3cc(S(=O)(=O)O)ccc23)cc1N`: the inhibition is 14% in assay [1], 13% in assay [2] and below 10% in assay [3].
In the same order, the values of `O=C(Nc1cccc2cccc(S(=O)(=O)O)c12)c1cccc([N+](=O)[O-])c1` are below 10%, below 10% and below 10%.
In the same order, the values of `O=C(Nc1cccc2cc(S(=O)(=O)O)ccc12)c1ccccc1` are below 10%, below 10% and 21%.
In the same order, the values of `NC(=O)c1ccc(Oc2cccc3ccccc23)cc1` are below 10%, 27% and 10%.
